The test concerns MCF7 cells. Nature of the test: Mammosphere formation in MCF7 cells (rotenone-induced oxidative stress). Type of test: cell-based, human. On the procedure: Investigation of the mechanism of tumorigenesis may be conducted by transduction of MCF7 cells with c-Myc, H-Ras, or both, and then subjecting the cell lines to phenotypic characterization, such as mammosphere formation. For the mammosphere formation assay inventors employed, a single suspension of MCF7 cells was prepared using enzymatic (lx Trypsin-EDTA, Sigma Aldrich) and manual disaggregation with a 25-gauge needle. Cells were plated at a density of 500 cells/cm^2 in a mammosphere medium (DMEM-F12/B27/20-ng/mlEGF/PenStrep) in non-adherent conditions, in culture dishes coated with 2-hydroxyethylmethacrylate (poly-HEMA, Sigma). Cells were grown for 5 days and maintained in a humidified incubator at 37° C. at an atmospheric pressure in 5% (v/v) carbon dioxide/air. After 5 days in culture, spheres >50 μm were counted using an eye-piece graticule, and the percentage of cells plated which formed spheres was calculated and is referred to as percent mammosphere formation, normalized to vehicle-alone treated controls. Mammosphere assays were performed in triplicate and repeated three times independently.
The inventors hypothesized that c-Myc induces “stemness” of CSCs in part by driving and managing the onset of mitochondrial oxidative stress. To test this hypothesis, inventors used a pharmacological approach to stimulate oxidative stress. Rotenone is a naturally occurring isoflavone that behaves as an inhibitor of complex I and strongly induces mitochondrial oxidative stress. During rotenone treatment, mitochondrial complexes I and III are the major sites of electron leakage, resulting in increased superoxide production. The inventors treated MCF7 cells with increasing concentrations of Rotenone.
To further validate that the effects of low-dose Rotenone were due to oxidative stress, the inventors tested the effects of a mitochondrial-specific antioxidant Mito-tempo. Mito-tempo functions as a reactive oxygen species (ROS) scavenger by targeting superoxide anions generated in mitochondria.

SMILES strings stand for the structures.

In the case of `CC1(C)CC(NC(=O)C[P+](c2ccccc2)(c2ccccc2)c2ccccc2)CC(C)(C)N1[O]` [Mito-tempo], the “effect on rotenone-stimulated mammosphere formation” value (MCF7 mammospheres pretreated with rotenone, FIG. 6) is recorded as “inhibited the stimulatory effects of rotenone”. For `C=C(C)[C@H]1Cc2c(ccc3c2O[C@@H]2COc4cc(OC)c(OC)cc4[C@@H]2C3=O)O1` [Rotenone], the “effect on mammosphere formation” value (higher dose Rotenone, MCF7 cells, FIG. 5) is listed as “inhibited mammosphere formation”. For the setting “low-dose Rotenone, MCF7 cells, FIG. 5”, the “stimulation of mammosphere formation” value was in the range of 1.6 to 1.8 fold.
